Experimental data: US10508120B2, “TYK2 inhibitors and uses thereof” (Nimbus Lakshmi, Inc., priority 2017, dated 2019)
Like-named read-outs stand apart in the source and are kept apart here.

Tests used:
JAK2 kinase domain (JH1) = JAK2 kinase domain (JH1) (Homo sapiens (Human), UniProt O60674); experiment: JAK2 Radioactive Kinase Assay; format: biochemical; details: for inhibition at 10 µM: read-out: JAK2 JH1% Inhibition @ 10 μM
How it was run: (§1)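 Single-point screen: 10 μM test compound, radioactive kinase read-out, percent inhibition reported for each kinase domain.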

[1] = target: human TYK2 (JH2domain-pseudokinase) (Homo sapiens (Human), UniProt P29597); experiment: TYK2 JH2 Domain Binding Assay (KINOMEscan)
How it was run: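 The construct was human TYK2 G556–D888 fused to the NFkB DNA-binding domain and expressed in HEK293 cells; unpurified extract was incubated with compound and liganded beads for 1 hour at room temperature.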

Tyk2 kinase domain (DH1) = Tyk2 kinase domain (DH1) (Homo sapiens (Human), UniProt P29597); experiment: Tyk2 Radioactive Kinase Assay; format: biochemical; details: for inhibition at 10 µM: read-out: Tyk2 JH1% Inhibition @ 10 μM
How it was run: as §1

human TYK2 (JH2domain-pseudokinase), sequence (P29597 556-888): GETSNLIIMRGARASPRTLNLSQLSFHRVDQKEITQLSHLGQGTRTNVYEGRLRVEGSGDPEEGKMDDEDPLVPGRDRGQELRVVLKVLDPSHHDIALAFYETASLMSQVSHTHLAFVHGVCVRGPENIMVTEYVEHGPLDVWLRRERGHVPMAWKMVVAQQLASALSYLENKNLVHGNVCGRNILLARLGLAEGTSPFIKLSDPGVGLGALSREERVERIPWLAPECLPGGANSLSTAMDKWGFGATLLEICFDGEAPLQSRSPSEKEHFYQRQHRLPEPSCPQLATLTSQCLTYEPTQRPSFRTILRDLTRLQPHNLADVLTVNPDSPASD
JAK2 kinase domain (JH1), sequence (O60674 849-1124): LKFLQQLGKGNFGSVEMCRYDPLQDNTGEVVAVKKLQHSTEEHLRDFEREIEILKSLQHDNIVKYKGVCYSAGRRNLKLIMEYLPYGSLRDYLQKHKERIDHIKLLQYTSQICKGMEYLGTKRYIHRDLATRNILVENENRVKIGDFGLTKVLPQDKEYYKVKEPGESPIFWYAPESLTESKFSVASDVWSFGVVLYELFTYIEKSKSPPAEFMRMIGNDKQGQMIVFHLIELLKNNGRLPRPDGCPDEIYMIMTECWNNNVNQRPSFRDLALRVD
Tyk2 kinase domain (DH1), sequence (P29597 897-1176): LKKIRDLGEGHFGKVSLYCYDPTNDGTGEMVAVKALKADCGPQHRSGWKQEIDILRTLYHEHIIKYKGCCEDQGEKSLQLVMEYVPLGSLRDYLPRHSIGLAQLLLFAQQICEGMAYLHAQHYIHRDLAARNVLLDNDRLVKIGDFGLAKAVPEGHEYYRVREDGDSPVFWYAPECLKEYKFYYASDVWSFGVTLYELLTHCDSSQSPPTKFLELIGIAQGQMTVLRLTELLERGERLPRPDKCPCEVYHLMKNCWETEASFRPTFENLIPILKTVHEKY

SMILES | JAK2 JH1% Inhibition @ 10 μM (JAK2 kinase domain (JH1); compound at 10 μM, ATP 10 μM) | Kd [1] [pM] | Tyk2 JH1% Inhibition @ 10 μM (Tyk2 kinase domain (DH1); compound at 10 μM, ATP 10 μM) | inhibition at 10 µM (JAK2 kinase domain (JH1); compound at 10 μM, ATP 10 μM) [%] | inhibition at 10 µM (Tyk2 kinase domain (DH1); compound at 10 μM, ATP 10 μM) [%] | inhibition at 10 µM (JAK2 kinase domain (JH1); 10 μM compound, 10 μM ATP) [%] | inhibition at 10 µM (Tyk2 kinase domain (DH1); 10 μM compound, 10 μM ATP) [%]
CNc1cc(Nc2cccn([C@H]3CCC[C@@H]3OC)c2=O)nc2c(C(=O)NC3CC3)cnn12 [I-436] | A (percent inhibition at 10 μM lower than 50) | 200 to 1000 | A (percent inhibition at 10 μM lower than 50) | – | – | – | –
CNc1cc(Nc2cccn3cnnc23)nc2c(C(=O)N[C@H]3C[C@H]3F)cnn12 [I-660] | – | < 200 | – | < 50 | < 50 | – | –
CNc1cc(Nc2cc(C)cnc2OC(C)C)nc2c(C(=O)N[C@H]3C[C@H]3F)cnn12 [I-214] | – | < 200 | – | < 50 | < 50 | – | –
CNc1cc(Nc2cccnc2OC(C)C)nc2c(C(=O)NC3CC3)cnn12 [I-146] | – | 200 to 1000 | – | < 50 | < 50 | – | –
CNc1cc(Nc2cccn([C@@H]3CC[C@H]3OC)c2=O)nc2c(C(=O)NC3CC3)cnn12 [I-1020] | – | 200 to 1000 | – | – | – | < 50 | < 50
CNc1cc(Nc2cc(F)cnc2OC(C)C)nc2c(C(=O)NC3CC3)cnn12 [I-209] | – | 200 to 1000 | – | < 50 | < 50 | – | –
CNc1cc(Nc2cccn(-c3cnco3)c2=O)nc2c(C(=O)NC3CC3)cnn12 [I-714] | – | < 200 | – | < 50 | < 50 | – | –
CNc1cc(-c2cn(C3CC3)c3ncccc23)nc2c(C(=O)N[C@@H]3CC[C@@H]3O)cnn12 [I-1081, 5-(1-cyclopropyl-1H-pyrrolo[2,3-b]pyridin-3-yl)-N-((1R,2S)-2-hydroxycyclobutyl)-7-(methylamino)pyrazolo[1,5-a]pyrimidine-3-carboxamide] | – | 200 to 1000 | – | – | – | < 50 | < 50
CNc1cc(Nc2cccnc2OC2CC2)nc2c(C(=O)N[C@@H]3CC[C@H]3O)cnn12 [I-398] | – | 200 to 1000 | – | < 50 | < 50 | – | –
Cc1c(Nc2cccnc2OC(C)C)nc2c(C(=O)NC3CC3)cnn2c1N [I-207, 7-amino-N-cyclopropyl-5-((2-isopropoxypyridin-3-yl)amino)-6-methylpyrazolo[1,5-a]pyrimidine-3-carboxamide] | – | 1000 to 10000 | – | < 50 | < 50 | – | –
CNc1cc(Nc2cccn([C@@H]3CCCOC3)c2=O)nc2c(C(=O)N[C@@H]3CC[C@@H]3O)cnn12 [I-752] | – | 200 to 1000 | – | < 50 | < 50 | – | –
CNc1cc(Nc2cc(Cl)cn([C@H]3CCCOC3)c2=O)nc2c(C(=O)N[C@H]3[C@@H]4COC[C@@H]43)cnn12 [I-800] | – | 200 to 1000 | – | < 50 | < 50 | – | –
COc1ncccc1Nc1cc(NC2CC2)n2ncc(C(=O)NC3CC3)c2n1 [I-336, N-cyclopropyl-7-(cyclopropylamino)-5-((2-methoxypyridin-3-yl)amino)pyrazolo[1,5-a]pyrimidine-3-carboxamide] | – | 200 to 1000 | – | < 50 | < 50 | – | –
CNc1cc(Nc2cc(F)cn([C@H]3CCCOC3)c2=O)nc2c(C(=O)NC3CC3)cnn12 [I-534] | – | 200 to 1000 | – | < 50 | < 50 | – | –
CNc1cc(Nc2cccn(C3CCCCC3)c2=O)nc2c(C(=O)NC[C@H](C)CO)cnn12 [I-1120] | – | 200 to 1000 | – | – | – | < 50 | < 50
CNc1cc(Nc2cc(C)cnc2OC(C)C)nc2c(C(=O)NC3CC3)cnn12 [I-212] | – | 200 to 1000 | – | < 50 | < 50 | – | –
CNc1cc(Nc2cccc(N3CCC4(CCCO4)CC3)n2)nc2c(C(=O)N[C@H]3CC[C@H]3O)cnn12 [I-721] | – | < 200 | – | < 50 | < 50 | – | –
CNc1cc(Nc2cccnc2OC(CO)CO)nc2c(C(=O)N[C@H]3C[C@H]3F)cnn12 [I-200] | – | 200 to 1000 | – | < 50 | < 50 | – | –

SMILES | JAK2 JH1% Inhibition @ 10 μM (JAK2 kinase domain (JH1); compound at 10 μM, ATP 10 μM) | Kd [1] [pM] | Tyk2 JH1% Inhibition @ 10 μM (Tyk2 kinase domain (DH1); compound at 10 μM, ATP 10 μM) | inhibition at 10 µM (JAK2 kinase domain (JH1); compound at 10 μM, ATP 10 μM) [%] | inhibition at 10 µM (Tyk2 kinase domain (DH1); compound at 10 μM, ATP 10 μM) [%] | inhibition at 10 µM (JAK2 kinase domain (JH1); 10 μM compound, 10 μM ATP) [%] | inhibition at 10 µM (Tyk2 kinase domain (DH1); 10 μM compound, 10 μM ATP) [%]
CNc1cc(Nc2cc(C)cn(-c3ccn(C)n3)c2=O)nc2c(C(N)=O)cnn12 [I-26] | – | < 200 | – | < 50 | < 50 | – | –
CNc1cc(Nc2cccn([C@H]3C[C@@H]3F)c2=O)nc2c(C(=O)NCC(C)(C)CO)cnn12 [I-1060] | – | < 200 | – | – | – | < 50 | < 50
CNc1cc(Nc2cccn([C@@H]3CC[C@@H]3O)c2=O)nc2c(C(=O)N[C@@H]3C[C@@H]3F)cnn12 [I-1110] | – | < 200 | – | – | – | < 50 | < 50
CNc1cc(-c2cn(C(C)C)c3ncc(Cl)cc23)nc2c(C(=O)NC3CC3)cnn12 [I-253, 5-(5-chloro-1-isopropyl-1H-pyrrolo[2,3-b]pyridin-3-yl)-N-cyclopropyl-7-(methylamino)pyrazolo[1,5-a]pyrimidine-3-carboxamide] | – | 200 to 1000 | – | < 50 | < 50 | – | –
CNc1cc(-c2cnn(-c3ccccc3)c2)nc2c(C(N)=O)cnn12 [I-44] | – | 200 to 1000 | – | < 50 | < 50 | – | –
CNc1cc(Nc2cccn(-c3cncc(F)c3)c2=O)nc2c(C(=O)N[C@@H]3C[C@@H]3F)cnn12 [I-968] | – | < 200 | – | – | – | < 50 | < 50
CNc1cc(Nc2cccn(-c3nn(C)c(C)c3C)c2=O)nc2c(C(=O)N[C@@H]3C[C@@H]3F)cnn12 [I-505] | – | 200 to 1000 | – | < 50 | < 50 | – | –
CNc1cc(Nc2cccc([C@@H]3CCCCO3)n2)nc2c(C(=O)N[C@H]3CC[C@H]3O)cnn12 [I-645] | – | 1000 to 10000 | – | < 50 | < 50 | – | –
CNc1cc(Nc2cccn([C@H]3CCC[C@@H](OC)C3)c2=O)nc2c(C(=O)N[C@@H]3CC[C@H]3OC)cnn12 [I-1126] | – | < 200 | – | – | – | < 50 | < 50
CNc1cc(Nc2cccn([C@@H]3CCC[C@H]3OC)c2=O)nc2c(C(=O)N[C@@H]3C[C@@H]3F)cnn12 [I-486] | – | 200 to 1000 | – | < 50 | < 50 | – | –
CNc1cc(Nc2cc(F)cn(C3CCCOC3)c2=O)nc2c(C(=O)NC3CC3)cnn12 (stereo not drawn) [I-494] | – | 200 to 1000 | – | < 50 | < 50 | – | –
CNc1cc(Nc2cccc(N3CCCC3)n2)nc2c(C(=O)N[C@H]3C[C@H]3F)cnn12 [I-383] | – | 200 to 1000 | – | < 50 | < 50 | – | –
CNc1cc(Nc2cccn(CCOC3CC3)c2=O)nc2c(C(=O)N[C@@H]3CC[C@@H]3O)cnn12 [I-473] | – | 200 to 1000 | – | < 50 | < 50 | – | –
CNc1cc(Nc2cc(C)c(=O)n(-c3cnn(C)c3)c2)nc2c(C(N)=O)cnn12 [I-287, 5-((5-methyl-1-(1-methyl-1H-pyrazol-4-yl)-6-oxo-1,6-dihydropyridin-3-yl)amino)-7-(methylamino)pyrazolo[1,5-a]pyrimidine-3-carboxamide] | – | 1000 to 10000 | – | < 50 | < 50 | – | –
CNc1cc(Nc2cccn(C3CCN(C)CC3)c2=O)nc2c(C(=O)N[C@@H]3CC[C@@H]3O)cnn12 [I-609] | – | < 200 | – | < 50 | < 50 | – | –
Cc1cc(Nc2cc(N)n3ncc(C(N)=O)c3n2)c(=O)n(-c2ccnn2C)c1 [I-99] | – | 1000 to 10000 | – | < 50 | < 50 | – | –
CNc1cc(Nc2cccn([C@H]3CCCC[C@H]3OC)c2=O)nc2c(C(=O)NCC(C)(C)CO)cnn12 [I-1046] | – | < 200 | – | – | – | < 50 | < 50
CNc1cc(Nc2cccnc2OC)nc2c(C(=O)N[C@@H]3CC[C@]3(C)O)cnn12 [I-1016, N-((1R,2S)-2-hydroxy-2-methylcyclobutyl)-5-((2-methoxypyridin-3-yl)amino)-7-(methylamino)pyrazolo[1,5-a]pyrimidine-3-carboxamide] | – | 1000 to 10000 | – | – | – | < 50 | < 50
